Laboratory results from patent US20030124160A1, “Targeted drug delivery” (priority 2001, published 2003).

Experiments:
tyrosinase [1] = test: Tyrosinase activity (DOPA oxidase assay) in lysates of B16-F1 cells cultured with free or liposome-included inhibitor; assay type: cell-based, mouse; settings: 24 h after washout following 72 h incubation
Protocol: B16-F1 mouse melanoma cells (European Collection of Animal Cell Culture, Porton Down, U.K.) were cultured in RPMI 1640 medium (Life Technologies, Paisley, Scotland, and U.K.) as described in ref. [8]. Cells were incubated with liposomes for 72 h at 37° C. and their viability was determined by using the trypan blue staining test. Following the incubation time, cells were harvested, washed three times with PBS and lysed in 10 mM phosphate buffer, pH 6.8 containing 1% Nonidet P40 and proteinase inhibitors.
Tyrosinase activity was measured by the DOPA oxidase assay that measures the conversion of DOPA to DOPAchrome via DOPA quinone. Briefly, 50 μl of cell lysate was mixed with 950 μl of 1 mM DOPA in 0.1 M sodium phosphate buffer, pH 7.2 at 37° C. and the reaction was followed spectrophotometrically at 475 nm by the chromogenic appearance of DOPAchroine from 1 mM DOPA (ref. [8]).
To investigate the uptake of liposome encapsulated NB-DNJ in living cells,.the activity of tyrosinase was monitored, a constitutively expressed enzyme of melanoma cells, highly sensitive to small variations of the NB-DNJ concentration in the culture medium (ref. [8]). Inhibition of N-glycosylation processing in the presence of NB-DNJ yields a tyrosinase polypeptide caring Glc3Man7-9GlcNAc glycans. […]

[2] = test system: B16-F1 mouse melanoma cells; test: Pigmentation of melanoma cells, visual inspection; assay type: cell-based; settings: 0.5 mM free NB-DNJ, 72 h
Protocol: Cells were treated with for 72 h in the presence and absence of NB-DNJ free or included in liposomes, transferred into a microtiter plate and pelleted by centrifugation.
Tyrosinase is the regulatory enzyme of melanogenesis in melanocytes. Therefore, inactivation of tyrosinase is associated with lack of pigmentation due to the absence of melanin synthesis in specialized cells. To correlate the results on tyrosinase activity, with the melanin content, the pigmentation of the melanoma cells treated With liposomes was observed. […] The lack of pigmentation in melanoma cells treated with minute amounts of liposomal NB-DNJ correlates well with the abolishment of tyrosinase activity as a result of N-glycosylation processing inhibition, reinforcing the efficiency of the cytoplasmic delivery of the drug encapsulated in liposomes.

tyrosinase [3] = settings: B16 mouse melanoma cells, 0.5 mM-5 mM free NB-DNJ (ref. [6]); cited from earlier work

CCCCN1C[C@H](O)[C@@H](O)[C@H](O)[C@H]1CO [NB-DNJ, N-butyldeoxynojirimycin]
recovery of tyrosinase activity (tyrosinase [1]): 75%
pigmentation [2]: dramatic decrease
tyrosinase activity (tyrosinase [3]): dramatic decrease
